Measurements from patent US20080206253A1, “Method For Preventing or Treating Pain in a Mammal” (priority 2005, published 2008).
Entries after “also recorded” stand apart in the source; their conditions may differ. No end group written: not given here.

Experiments:
Format in all cases: in vivo, rat
PGE2 = assay: IT SP-evoked spinal PGE2 release (intrathecal dialysis, ELISA)
Excerpt: It was previously shown that intrathecal injection of SP and NMDA, but not vehicle, evokes PGE2 release assessed by spinal dialysis. Hua et al., Neuroscience 89: 525-534, 1999b.; Svensson et al., Neuroreport 14: 1153-1157, 2003a. It has been reported that PLA2 which generates free arachidonic acid necessary for eicosanoid synthesis, requires phosphorylation to become fully activated and that this phosphorylation can be mediated by p38 MAP kinase. Borsch-Haubold et al., Eur J Biochem 245: 751-759, 1997. The effect of spinal p38α/β inhibition was assessed on IT S P-evoked PGE2 release by injecting SB203580 15 min prior to IT SP. Resting release of PGE2 was determined after a washout period of 30 min. In the absence of pretreatment, baseline dialysate concentrations were determined to be 243±13 femtomol/100 μl perfusate (N=20). If SP (30 nmol) produced a 6-8 fold increase in PGE2 level in intrathecal CSF (FIG. 8A). […] If injection of vehicle prior to IT SP ad no effect on IT SP-evoked PGE2 release.
(A) Bar graph showing PGE2 concentration (fmol/100 μl) measured in cerebrospinal fluid collected by in vivo spinal dialysis of conscious rats before and after IT injection of substance P(SP, 30 nmol) and SB302580 (30 μg). Spinal dialysate is removed and assayed for PGE2 by ELISA at baseline (B, average of two 15 min fractions collected prior to IT injection of SP) and F1: 0-15 minutes, F2: 15-30 minutes and F3: 30-45 minutes and 45-60 minutes after SP injection. Rats received IT SP or IT SB203580 (α/βp38 inhibitor) 15 minutes prior to IT SP. (B) PGE2 release is presented as area under curve (AUC) calculated 60 minutes after IT injection of SP with or without pretreatment with p38 inhibitors. […] Each bar represents the average and SEM for 4-8 rats per group and (*) represents P<[…] versus baseline.
Intrathecal Dialysis & PGE2 assay. Dialysis experiments were conducted in unanethetized rats 4-5 days after the implant. […] The concentration of PGE2 in spinal dialysate was measured by ELISA using a commercially available kit (Assay Designs 90001, Assay Designs, Ann Arbor, Mich.). […]

[1] = system: phosphorylated p38 (P-p38); assay: IT substance P-evoked spinal p38 phosphorylation (Western blot); conditions: IT SP 30 nmol, at 30 min, N=6, P<0.05
Protocol: (§1) Yaksh et al., Nature 286: 155-157, 1980; Yaksh, Trends Pharmacol Sci 20: 329-337, 1999. […] Malmberg and Yaksh, Science 257: 1276-1279, 1992; Svensson et al., J Neurochem 86: 1534-1544, 2003. […] To investigate the contribution of p38α and p38β to SP-evoked hyperalgesia and p38 phosphorylation, spinal delivery of p38α and p38β AS and MS was carried out. Thermal withdrawal latencies was assessed after IT injection of SP and lumbar spinal cords collected immediately to compare the degree of spinal p38 phosphorylation at the hypothesized time of peak phosphorylation. IT injection of SP into the MS group produced an expected reduction of thermal withdrawal latency in comparison with IT saline injection into to vehicle treated animals (FIG. 7C). […] In contrast, IT SP-induced thermal hyperalgesia was attenuated in rats which had received p38β AS (FIG. 7E). […] Stripping and reprobing the western blot membranes confirmed that p38α protein expression was knocked down in p38α AS treated group (FIG. 7D) as well as p38β in the p38β AS group (FIG. 7F).
(A) Graph displaying paw withdrawal latency (PWL) plotted versus time. […] (B) Representative western blots showing levels of P-p38, total p38 and β-actin in lumbar spinal cord at different time points after IT injection of SP (30 nmol). IT-SP induced p38 phosphorylation peaks 30 minutes after SP injection. (C, E) Graph showing PWL assessed 15 and […] after bolus injection of IT saline or IT SP injection in rats treated with IT ACSF, MS (30 μg), p38α AS (30 fig) or p38β AS (20 μg) daily for five days. […] IT injection of MS or ACSF had no effect on IT SP-evoked thermal hyperalgesia. Each time point represents the mean ±SEM (n=4-5 per group). (D, F) Representative western blots showing the level of P-p38, p38α and p38β and β-actin protein expression assessed 30 minutes after IT SP injection.
Western blot. Prior to sacrifice, rats were deeply anesthetized and after decapitation the spinal cords were ejected from the vertebral column by a saline-filled syringe. The lumbar part of the spinal cord was immediately homogenized in extraction buffer (50 mM Tris buffer, pH 8.0, containing 0.5% Triton X-100, 150 mM NaCl, 1 mM EDTA, phosphatase and protease inhibitors) by sonication. […] After washing, the antibody-protein complexes were probed with appropriate secondary antibodies labeled with horseradish peroxidase for 1 hr at room temperature and detected with chemiluminescent reagents (SuperSignal, Pierce, Rockford, Ill.). […] Intensity of immunoreactive bands was quantified using ImageQuant software (Molecular Dynamics, Sunnyvale, Calif.). p38 immuno-positive bands were normalized relative to β-actin.

[2] = system: rats, IT SP (spinal NK-1 receptors); assay: IT substance P-evoked thermal hyperalgesia (paw withdrawal latency, Hargreaves device); conditions: IT SP 30 nmol at T=0, versus IT saline
Protocol: as §1
Nociceptive models. To directly induce spinal sensitization, rats received intrathecal injections of sP (30 nmol) which activates spinal NK-1 receptors and produces thermal hyperalgesia. Hua et al., Neuroscience 89: 525-534, 1999a; Piercey et al., Science 214: 1361-1363, 1981; Yashpal and Henry, Can J Physiol Pharmacol 61: 303-307, 1983. Thermally evoked paw withdrawal responses were assessed using a Hargreaves type testing device. Dirig et al., J Neurosci Methods 76: 183-191, 1997. Briefly, rats were placed on a glass surface maintained at 30° C. The thermal nociceptive stimulus originates from a projection bulb below the glass surface, and the stimulus is delivered separately to one hind paw at a time. The animals were allowed to acclimatize on the glass surface and basal paw withdrawal latencies (PWL) were then assessed for left and right paws at time (T)=−40, =30 and −20 min and expressed as the mean of the six measurements. At T=−10 min the animals received intrathecal vehicle or drug and at T=0, sP was injected. Withdrawal latencies were then assessed at T=15, 30, 45 and 60 min. Paw withdrawal latency for each group was expressed as the mean at each time point.

[3] = system: rats, formalin-injected hind paw; assay: Formalin-induced flinching (paw formalin test); conditions: IT injection 3-30 μg 10 minutes prior to formalin; 30 μg: P<0.05 versus vehicle
Protocol: In recent work it was shown that inhibition of spinal p38 MAP kinase attenuated formalin-induced flinching. Svensson et al., J Neurochem 86: 1534-1544, 2003b. To examine the contribution of p38α and p38β in this experimental model of hyperalgesia, animals were injected with p38α, p38β AS or MS IT for five days. These animals were then examined on the formalin test. Unilateral intraplantar formalin solution (2.5%) caused a biphasic flinching pattern where the first 9 minutes are referred to as phase I and the following 50 minutes (min 10-60) as phase II. Yaksh et al., J Neurosci 21: 5847-5853, 2001a. The phase II flinching is considered to represent afferent input initiated spinal facilitation. Dickenson and Sullivan, Neurosci Lett 83: 207-211, 1987; Puig and Sorkin, Pain 64: 345-355, 1996. […] To further confirm the role of p38 to injury-induced pain behavior, a pharmacological inhibitor was also studied: SB203580, a p38α/β non-selective inhibitor.
To quantify formalin induced flinching, an automated sensing system was employed. Yaksh et al., J Appl Physiol 90: 2386-2402, 2001b. Briefly, a soft metal band was placed on the hind paw of the animal being tested. Animals were allowed to acclimate in individual Plexiglas chambers for 30 min before being moved to a test chamber. Just before the animals were placed into the test chamber, they were briefly restrained in a cloth towel, and 2.5% formalin (50 μl) was injected into the dorsal side of the banded paw. Nociceptive behavior was quantified by automatically counting the incidences of spontaneous flinching or shaking of the injected paw. The flinches were counted for 1-min periods for 60 minutes and the flinch data are expressed as number of flinches per min and total flinches observed during phase I (0-9 min) and phase II (10-60 min).

Row | Molecule | increase in PGE2 level in intrathecal CSF (PGE2; IT SP 30 nmol, spinal dialysis, conscious rats) | phosphorylation of spinal p38, peak effect, increase as compared to saline group [1] | paw withdrawal latency (PWL) after IT injection [2] | SP-evoked release of PGE2, AUC between groups (PGE2; 30 μg IT prior to SP, AUC 60 minutes after IT SP, unpaired t-test P<0.05) | IT SP-evoked PGE2 release (PGE2; pretreatment 30 μg IT, 15 min prior to IT SP 30 nmol) | flinching during phase II [3]
1 | SP: substance P (Sigma), injected IT to activate spinal NK-1 receptors and produce thermal hyperalgesia (RPKPQQFFGLM-NH2; UniProt P20366 58-68, looked up) [reference compound] | 6-8 fold | 224±41% | transient decrease in PWL | – | – | –
2 | C[S+]([O-])c1ccc(-c2nc(-c3ccncc3)c(-c3ccc(F)cc3)[nH]2)cc1 (stereo not drawn) [SB203580, reference compound] | – | – | – | significantly lower | prevented IT SP-evoked PGE2 release | dose-dependent attenuation; also recorded: statistically different
